Here are results for four molecules from publication PMC4609575 (The international journal of biochemistry & cell biology, 2010).

A word on the koff: it is a measure of how fast the partners let go of each other. Low values mean a long-lived complex, high ones a short-lived complex. A word on the kon: it is the rate constant with which the complex forms. Low values mean slower complex formation, high ones faster complex formation. The term Kd denotes the free concentration of one partner at which half of the binding sites on the other are occupied at equilibrium, for simple one-to-one binding. Higher therefore signals a looser complex. One may read the IC50 as the concentration at which inhibition is half-maximal. As usually defined, the Ki is the dissociation constant of the complex between target and ligand, obtained from inhibition or displacement. Read a low Ki as tighter binding.

Where two headings read alike, the source gives them in different places.

In assay [1] the target is T1, hα3β4 AChR (Homo sapiens, UniProt P30926+P32297). Description: cell-based. Type of assay: cell-based.
T1 sequence (P32297 32-505): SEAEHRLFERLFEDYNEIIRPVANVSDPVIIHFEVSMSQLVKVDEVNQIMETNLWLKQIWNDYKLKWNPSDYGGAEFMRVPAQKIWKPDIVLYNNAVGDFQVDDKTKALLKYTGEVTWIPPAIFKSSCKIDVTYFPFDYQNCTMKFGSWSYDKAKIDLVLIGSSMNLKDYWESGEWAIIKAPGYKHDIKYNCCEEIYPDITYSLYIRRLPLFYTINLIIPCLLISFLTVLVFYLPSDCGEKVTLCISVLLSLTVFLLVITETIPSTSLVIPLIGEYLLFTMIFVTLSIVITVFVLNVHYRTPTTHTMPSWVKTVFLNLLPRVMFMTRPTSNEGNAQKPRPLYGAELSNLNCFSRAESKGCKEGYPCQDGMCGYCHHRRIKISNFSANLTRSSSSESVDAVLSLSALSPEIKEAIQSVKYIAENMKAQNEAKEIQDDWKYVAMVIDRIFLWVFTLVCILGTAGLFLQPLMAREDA
T1 sequence (P30926 22-498): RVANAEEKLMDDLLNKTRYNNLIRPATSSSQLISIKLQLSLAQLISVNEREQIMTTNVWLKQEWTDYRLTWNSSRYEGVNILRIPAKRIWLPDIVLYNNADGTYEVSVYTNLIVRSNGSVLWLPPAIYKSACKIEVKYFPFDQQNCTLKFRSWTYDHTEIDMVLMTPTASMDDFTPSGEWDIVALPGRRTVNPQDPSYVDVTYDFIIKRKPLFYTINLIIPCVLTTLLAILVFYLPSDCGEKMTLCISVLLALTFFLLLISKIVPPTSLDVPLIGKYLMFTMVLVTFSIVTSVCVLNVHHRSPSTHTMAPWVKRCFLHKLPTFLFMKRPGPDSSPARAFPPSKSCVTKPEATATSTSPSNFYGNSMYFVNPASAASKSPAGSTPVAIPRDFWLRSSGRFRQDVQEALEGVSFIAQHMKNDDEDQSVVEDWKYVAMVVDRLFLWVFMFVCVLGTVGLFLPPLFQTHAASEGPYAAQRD
The target in assay [2] is T1, hα3β4 AChR. Format: binding. The settings on record: for nH: radioligand [3H]ibogaine.
Assay [3] concerns the target T1, hα3β4 AChR. Format: binding. To be noted: for nH: radioligand [3H]TCP.
Assay [4] concerns the target T1, hα3β4 AChR. Put plainly: Binding kinetics by non-linear chromatography on the CMAC-hα3β4 AChR column.
The target in assay [5] is T1, hα3β4 AChR. Type of assay: binding. To be noted: for ΔG^20: 293 K; for Ea (energy of activation of the dissociation process): Arrhenius plot; for ΔH°: van't Hoff plot.
The target of assay [6] is T1, hα3β4 AChR. Put plainly: Equilibrium binding of [3H]ibogaine to hα3β4 AChR membranes.
The subject of the next assay is rat α3β4 AChRs. The settings on record: 86Rb+ efflux, rat α3β4 AChRs ref Hernandez et al., 2000; cited from earlier work.
Setting [7] is: Desensitized state (1 µM (−)-nicotine).
The mark [8] stands for this setting: AChR in the resting state (κ-BTx), 20 °C.
[9] abbreviates: Epibatidine treated column (desensitized state).
The mark [10] stands for this setting: κ-BTx treated column (resting state).

On to “7-ethyl-6,2,7,8,9,10,12,13-octahydro-2-methoxy-6,9-methano 5H-pyrido(1′,2′:1,2-azepine (4,5-)indole) [Ibogaine]”, for which the “nH (Hill coefficient)” value on hα3β4 AChR [1] came to 1.24 ± 0.07. For the same molecule, at hα3β4 AChR [1] (ibogaine IC50 versus PCP IC50), the “fold higher potency than PCP in inhibiting (±)-epibatidine-induced Ca2+ influx” value is on record as ~ 9 fold. Also, the nH on hα3β4 AChR [2] (setting [7]) stood at 1.01 ±0.11. For the same molecule, the nH at hα3β4 AChR [2] (Resting state) was 0.82 ± 0.08. For the same molecule, on hα3β4 AChR [2] ([3H]ibogaine competition, p < 0.05), the “fold higher affinity for desensitized/nicotine-bound than resting/no ligand AChR” value is recorded as ~ 2.8 fold. Further, the nH at hα3β4 AChR [3] (setting [7]) is 0.95 ±0.13. Further, on hα3β4 AChR [3] (Resting state), the nH came out at 0.79 ± 0.13. On hα3β4 AChR [3] ([3H]TCP competition), the “fold higher affinity for desensitized than resting AChR” value is given as ~ 2.6 fold. For the same molecule, on hα3β4 AChR [4], the dissociation rate constant (koff) amounted to 0.078 ± 0.002 s⁻¹, the kon came to 300000 ± 10000 M⁻¹ s⁻¹ and the ΔG was -8.82 ± 0.024 kcal/mol. At hα3β4 AChR [4] (setting [8]), the “Ka (association constant)” value is 3.47 ± 0.12 µM⁻¹ and the koff worked out at 0.088 ± 0.001 s⁻¹. This molecule also had a kon on hα3β4 AChR [4] (AChR in the resting state (κ-BTx), kon = koff·Ka) of 310000 ± 20000 M⁻¹ s⁻¹. In addition, the “association rate constants kon (order of magnitude)” value at hα3β4 AChR [4] (both conformational states) is ~ 10^5 M^−1 s^−1. At hα3β4 AChR [5] (setting [9]), the “ΔH^+ (enthalpy change of the transition state)” value came to 12.7 ± 1.8 kJmol^−1, the “−TΔS°” value is −29.4 ± 0.3 kJmol-^1, the “ΔG^20” value is reported as −37.0 ± 0.1 kJmol^−1 and the “Ea (energy of activation of the dissociation process)” value came to 15.1 ± 1.8 kJmol^−1. For the same molecule, the “ΔH°” value on hα3β4 AChR [5] (setting [9]) is -1.82 ± 0.072 kcal/mol. On hα3β4 AChR [5] (setting [10]), the “ΔH^+ (enthalpy change of the transition state)” value came to 11.2 ± 0.7 kJmol^−1, the “−TΔS°” value was −26.2 ± 0.7 kJmol-^1, the “ΔG^20” value was −36.7 ± 0.1 kJmol^−1 and the “Ea (energy of activation of the dissociation process)” value was determined as 13.7 ± 0.7 kJmol^−1. Besides, on hα3β4 AChR [5] (setting [10]), the “ΔH°” value was -2.51 ± 0.17 kcal/mol.

With [^3H]ibogaine, the “specific activity (number of binding sites, Bmax)” value on hα3β4 AChR [6] (HEK293-hα3β4 membranes, x-intersect of Scatchard plot) is given as 3.9 ± 0.4 pmol/mg protein. On hα3β4 AChR [6] (resting (no ligand) state, Rosenthal-Scatchard plot), the affinity, expressed as Kd, was 0.46 ± 0.06 µM.

For the molecule `Clc1ccc(C2CC3CCC2N3)cn1` (racemic) [(±)-epibatidine, (±)-Epibatidine], on hα3β4 AChR [1] (activation of the hα3β4 AChR, Ca2+ influx), the “nH (Hill coefficient)” value is given as 1.21 ± 0.06.

In the case of `c1ccc(C2(N3CCCCC3)CCCCC2)cc1` [PCP, phencyclidine], the IC50 on hα3β4 AChR [1] was 8.5 ± 1.4 µM; with rat α3β4 AChRs it was 7 ± 1.3 µM. For the same molecule, the “fold higher inhibitory potency in the hα3β4 AChR than in the muscle AChR” value on hα3β4 AChR [1] (compared with muscle AChR value of ref Fryer and Lukas, 1999) is recorded as ~ 2 fold. For the same molecule, at hα3β4 AChR [1] (inhibition of (±)-epibatidine-induced Ca2+ influx, HEK293-hα3β4 cells), the “nH (Hill coefficient)” value is reported as 0.92 ± 0.02. The Ki on hα3β4 AChR [2] worked out at 17 ± 2 µM; on hα3β4 AChR [3], 10 ± 2 µM. Besides, the results for the nH on hα3β4 AChR [2] (Resting state) and at hα3β4 AChR [3] (Resting state) were 0.88 ± 0.07 and 0.87 ± 0.10, respectively. Moreover, at hα3β4 AChR [2] (resting hα3β4 AChR, Table 2 values), the “times lower affinity compared to ibogaine” value is recorded as 10–16 times.
